Source: US9175906B2, “Drug particles from freezing onto a surface” (BOARD OF REGENTS, THE UNIVERSITY OF TEXAS SYSTEM, priority 2003, dated 2015)
Values joined by “and” are separate entries in the source; they are usually repeats but may differ in a detail not shown here. Equal values may be shown once.

Columns and labels:
[1] = Particle size analysis (Beckman Coulter Counter) after redispersion in water; assay type: physicochemical; conditions: bulk drug powder as received, redispersed in water
Description: (§1) • Particle Size Analysis. […] Dissolution obtained using the following method is also referred to herein as “in vitro dissolution”. The dissolution media used varied with the drug substance, and is specified below. The dissolution media was heated to 37° C. and degassed. Dissolution was performed utilizing three vessels per experiment. 11 to 12 mg of drug particles prepared according to the present invention was added to each vessel for dissolution analysis. Dissolution samples were filtered automatically into test tubes containing 0.1 mL of acetonitrile, mixed with a vortex mixer, filtered and analyzed by HPLC. Samples were taken at 2, 5, 10, 15, 20, 30, 60, and 120 minutes. At the 60 min. point the agitation speed was increased to 200 rpm to ensures complete dissolution by 120 minutes. The 120 min. reading is the infinity time reading and the infinity time is used to calculate the potency. […] Crystallinity was determined by X-ray diffraction methods using a Bruker D-8 automated diffractometer. • Atmospheric Freeze Drying (ATMFD). ATMFD was one method of solvent removal used in the following examples. Heat transfer fluid was circulated through the circulating jacket of the heat exchanger, that was used to cool the drying gas then to the jacket of the ATMFD unit. Chilled nitrogen gas is flowed through the bottom of the ATMFD unit to sublime the solvent(s) away from the drug (s) and fluidizing the solids. The ATMFD unit and the nitrogen gas temperature are slowly warmed to ambient temperature. After the ATMFD portion of the process was complete the solid was collected from either the cyclone or the ATMFD Unit. • Freeze Drying. Freeze drying was an alternative solvent removal method used in some of the following examples. The frozen solution that was prepared was transferred to ajar cooled with dry ice. The processed solid in the chilled container was placed on a Virtis freeze dryer and dried for app. 12-24 hr at approximately 100 mtorr vacuum.

[2] = USP Dissolution Apparatus Method 2 (in vitro dissolution); assay type: physicochemical; conditions: 37° C.
Description: as §1

[3] = deionized water containing 10.0 wt. % sodium chloride

| PSA of bulk drug [1] | SMILES | also measured |
| --- | --- | --- |
| 13.5 microns and 13.50 microns | CC(=O)N1CCN(c2ccc(OCC3COC(Cn4ccnc4)(c4ccc(Cl)cc4Cl)O3)cc2)CC1 (stereo not shown) [Ketoconazole] | Dissolution of bulk drug after 2 minutes ([2]; deionized water containing 0.5 wt. % SLS): 26.1 wt % and 26.10 wt % |
| 391.4 microns | NC(=O)N1c2ccccc2C=Cc2ccccc21 [Carbamazepine] | Dissolution of bulk drug after 2 minutes ([2]; deionized water containing 5.0 wt. % sodium chloride): 4.83 wt % |
| 7.707 microns | CC1(C)O[C@@H]2C[C@H]3[C@@H]4CCC5=CC(=O)C=C[C@]5(C)[C@@]4(F)[C@@H](O)C[C@]3(C)[C@]2(C(=O)CO)O1 [Triamcinalone Acetonide] | Dissolution of bulk drug after 2 minutes [2, 3]: 5.38 wt % |
| 3.263 microns | C[C@]12C=CC(=O)C=C1CC[C@@H]1[C@@H]2C(=O)C[C@@]2(C)[C@H]1CC[C@]2(O)C(=O)CO [Prednisone] | Dissolution of bulk drug after 2 minutes [2, 3]: 0.97 wt % |
| 42.73 microns | CC(C(=O)O)c1cccc(C(=O)c2ccccc2)c1 (stereo not shown) [Ketoprofen] | – |
| 24.86 microns | C#C[C@]1(O)CC[C@H]2[C@@H]3CCC4=Cc5oncc5C[C@]4(C)[C@H]3CC[C@@]21C [Danazol] | Dissolution of bulk drug after 2 minutes ([2]; deionized water, 0.75 wt. % SLS, 1.21 wt. % Tris, pH 9): 56.42 wt % |
| 17.07 microns | CC(=O)OCC(=O)[C@@]1(O)CC[C@H]2[C@@H]3CCC4=CC(=O)CC[C@]4(C)[C@H]3[C@@H](O)C[C@@]21C [Hydrocortisone Acetate] | Dissolution of bulk drug after 2 minutes ([2]; deionized water containing 0.3 wt. % SDS): 21.16 wt % |
